What was measured:
Type in all cases: biochemical
[1] = target: T1, KDM5C (JARID1C) (Homo sapiens, UniProt P41229); experiment: Histone lysine demethylase AlphaLISA assay, KDM5C; details: read-out: KDM5C HDME Inhibition IC50
T1 construct: 2-1560; purchased BPS; host or cells: Bac (baculovirus system)
Procedure: (§1) Assays are performed analogously to the protocol described by PerkinElmer (Roy et al. PerkinElmer Technical Note: AlphaLISA #12, April 2011)
(§2) Enzymes are dissolved in enzyme buffer and incubated for 10 min before being added to 3% DMSO solutions of compounds in enzyme buffer. Incubated for another 10 minutes, before substrate solution is added and the reaction mixture is incubated at room temperature. 10 μL acceptor beads, suspended in Epigenetic Buffer (Perkin Elmer AL008) from stock, are added and the suspension is incubated in the dark at room temperature, before a suspension of streptavidin donor beads (Perkin Elmer 6760002) in Epigenetic Buffer is added. After incubation at room temperature in the dark the plates are read. […]
H3K4M3B: H-ART(Kme3)QTARKSTGGKAPRKQLA-NH-Biotin (Caslo, Denmark) […]
(§3) Substrate Solution: Substrate, 25 μM L-Asc, and 10 μM α-KG in Buffer A.

[2] = target: KDM6A (UTX) (Homo sapiens, UniProt O15550); experiment: Histone lysine demethylase AlphaLISA assay, KDM6A; details: read-out: KDM6A HDME Inhibition IC50
How it was run: (§4)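 Enzyme 10 min pre-incubation; + compound (3% DMSO soln) 10 min; + biotin-H3 methyl-Lys peptide, 25 μM L-Asc, 10 μM α-KG, RT. Read: AlphaLISA acceptor beads, then streptavidin donor beads, RT, dark.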

[3] = target: T2, KDM4B (JMJD2B) (Homo sapiens, UniProt O94953); experiment: Histone lysine demethylase AlphaLISA assay, KDM4B; details: read-out: KDM4B HDME Inhibition IC50
T2 construct: 2-500; purchased BPS; host or cells: Bac (baculovirus system)
T2 sequence (O94953 2-500): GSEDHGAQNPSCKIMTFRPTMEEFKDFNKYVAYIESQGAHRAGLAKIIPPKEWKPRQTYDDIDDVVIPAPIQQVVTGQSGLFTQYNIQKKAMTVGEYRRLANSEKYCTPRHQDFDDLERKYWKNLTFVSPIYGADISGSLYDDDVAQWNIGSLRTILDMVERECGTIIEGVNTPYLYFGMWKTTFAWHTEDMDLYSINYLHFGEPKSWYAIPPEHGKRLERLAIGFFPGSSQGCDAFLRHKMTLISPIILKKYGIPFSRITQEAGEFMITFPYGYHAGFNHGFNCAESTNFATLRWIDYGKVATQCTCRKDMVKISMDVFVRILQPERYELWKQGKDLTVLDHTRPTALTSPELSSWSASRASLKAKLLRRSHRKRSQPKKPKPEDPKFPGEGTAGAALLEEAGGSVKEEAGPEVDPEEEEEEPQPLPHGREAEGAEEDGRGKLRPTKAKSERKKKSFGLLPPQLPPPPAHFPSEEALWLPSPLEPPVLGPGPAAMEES
Procedure: as §1
Enzymes are dissolved in enzyme buffer and incubated for 10 min before being added to 3% DMSO solutions of compounds in enzyme buffer. Incubated for another 10 minutes, before substrate solution is added and the reaction mixture is incubated at room temperature. 10 μL acceptor beads, suspended in Epigenetic Buffer (Perkin Elmer AL008) from stock, are added and the suspension is incubated in the dark at room temperature, before a suspension of streptavidin donor beads (Perkin Elmer 6760002) in Epigenetic Buffer is added. After incubation at room temperature in the dark the plates are read.
BK9M3: Biotin-ARTKQTAR(KMe3)STGGKAPRKQ-NH2 (Caslo, Denmark) […]
as §3

[4] = target: T3, KDM6B (JMJD3) (Homo sapiens, UniProt O15054); experiment: Histone lysine demethylase AlphaLISA assay, KDM6B; details: read-out: KDM6B HDME Inhibition IC50
T3 construct: 1043-end; purchased BPS; host or cells: Bac (baculovirus system)
Procedure: as §1, §2
BK27M3: Biotin-ATKAAR(Kme3)SAPATGGVKKPHRY-NH2? (Caslo, Denmark) […]
as §3

[5] = target: T4, KDM5B (PLU-1) (Homo sapiens, UniProt Q9UGL1); experiment: Histone lysine demethylase AlphaLISA assay, KDM5B; details: read-out: KDM5B HDME Inhibition IC50
T4 sequence (Q9UGL1 1-809): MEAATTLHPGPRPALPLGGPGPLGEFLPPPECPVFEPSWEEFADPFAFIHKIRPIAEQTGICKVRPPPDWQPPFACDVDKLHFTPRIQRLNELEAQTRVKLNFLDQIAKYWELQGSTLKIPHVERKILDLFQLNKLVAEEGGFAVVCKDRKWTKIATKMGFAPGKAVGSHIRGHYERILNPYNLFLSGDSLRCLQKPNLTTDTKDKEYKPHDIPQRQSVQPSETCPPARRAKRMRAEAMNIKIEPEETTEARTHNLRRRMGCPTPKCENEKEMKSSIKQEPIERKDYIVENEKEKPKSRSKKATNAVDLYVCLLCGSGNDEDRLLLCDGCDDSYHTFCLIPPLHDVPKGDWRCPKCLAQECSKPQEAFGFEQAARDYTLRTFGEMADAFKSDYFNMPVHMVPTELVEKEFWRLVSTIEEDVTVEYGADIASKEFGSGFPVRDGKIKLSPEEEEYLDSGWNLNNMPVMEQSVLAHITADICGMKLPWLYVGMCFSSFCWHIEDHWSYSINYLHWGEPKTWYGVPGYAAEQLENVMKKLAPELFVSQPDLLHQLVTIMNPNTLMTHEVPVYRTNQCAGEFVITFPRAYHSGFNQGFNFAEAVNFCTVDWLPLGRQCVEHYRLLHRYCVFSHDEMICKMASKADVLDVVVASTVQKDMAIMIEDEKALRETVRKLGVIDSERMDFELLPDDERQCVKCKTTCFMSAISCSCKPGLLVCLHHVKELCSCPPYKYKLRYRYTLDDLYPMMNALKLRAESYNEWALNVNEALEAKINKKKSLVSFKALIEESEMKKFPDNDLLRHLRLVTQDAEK
How it was run: as §4

T1 sequence (P41229 2-1560): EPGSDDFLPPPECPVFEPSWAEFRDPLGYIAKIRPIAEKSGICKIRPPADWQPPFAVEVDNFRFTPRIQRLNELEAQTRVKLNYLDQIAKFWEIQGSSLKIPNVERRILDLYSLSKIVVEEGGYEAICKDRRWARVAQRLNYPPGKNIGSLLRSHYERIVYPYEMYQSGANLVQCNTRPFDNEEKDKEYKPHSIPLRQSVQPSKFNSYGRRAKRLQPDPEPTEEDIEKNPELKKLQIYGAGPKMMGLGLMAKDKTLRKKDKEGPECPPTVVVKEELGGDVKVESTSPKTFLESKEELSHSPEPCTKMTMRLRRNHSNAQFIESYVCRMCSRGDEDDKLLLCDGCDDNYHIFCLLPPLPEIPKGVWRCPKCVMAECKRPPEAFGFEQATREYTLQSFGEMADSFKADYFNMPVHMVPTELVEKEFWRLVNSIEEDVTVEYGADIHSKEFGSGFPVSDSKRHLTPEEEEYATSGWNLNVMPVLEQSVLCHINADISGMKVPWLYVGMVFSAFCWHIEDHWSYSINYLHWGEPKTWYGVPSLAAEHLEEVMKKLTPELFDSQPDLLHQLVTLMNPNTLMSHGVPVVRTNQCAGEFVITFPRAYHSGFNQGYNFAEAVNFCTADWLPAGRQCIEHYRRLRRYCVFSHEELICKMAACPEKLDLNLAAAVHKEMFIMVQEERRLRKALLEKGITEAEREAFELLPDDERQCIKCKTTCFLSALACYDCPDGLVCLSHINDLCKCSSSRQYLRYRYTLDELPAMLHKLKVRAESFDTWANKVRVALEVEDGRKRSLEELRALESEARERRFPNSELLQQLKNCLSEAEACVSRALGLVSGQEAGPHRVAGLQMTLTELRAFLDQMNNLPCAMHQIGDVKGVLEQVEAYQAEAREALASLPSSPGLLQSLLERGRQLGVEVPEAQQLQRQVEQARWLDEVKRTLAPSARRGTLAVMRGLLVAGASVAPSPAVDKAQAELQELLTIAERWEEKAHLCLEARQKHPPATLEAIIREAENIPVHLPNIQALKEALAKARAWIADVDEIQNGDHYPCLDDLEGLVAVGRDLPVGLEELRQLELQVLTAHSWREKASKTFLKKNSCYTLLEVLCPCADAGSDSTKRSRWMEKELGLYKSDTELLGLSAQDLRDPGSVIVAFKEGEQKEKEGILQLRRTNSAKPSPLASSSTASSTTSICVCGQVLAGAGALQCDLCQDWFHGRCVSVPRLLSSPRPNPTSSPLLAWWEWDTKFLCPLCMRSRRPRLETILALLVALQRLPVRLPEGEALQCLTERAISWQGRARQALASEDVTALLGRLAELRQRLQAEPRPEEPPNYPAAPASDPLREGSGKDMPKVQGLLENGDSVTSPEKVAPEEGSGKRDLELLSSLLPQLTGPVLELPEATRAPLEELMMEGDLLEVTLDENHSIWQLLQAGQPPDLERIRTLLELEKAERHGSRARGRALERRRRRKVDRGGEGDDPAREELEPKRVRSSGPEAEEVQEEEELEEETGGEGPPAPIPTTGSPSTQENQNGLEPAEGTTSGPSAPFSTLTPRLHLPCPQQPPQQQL
Sequence of KDM6A (UTX) (O15550 919-1401): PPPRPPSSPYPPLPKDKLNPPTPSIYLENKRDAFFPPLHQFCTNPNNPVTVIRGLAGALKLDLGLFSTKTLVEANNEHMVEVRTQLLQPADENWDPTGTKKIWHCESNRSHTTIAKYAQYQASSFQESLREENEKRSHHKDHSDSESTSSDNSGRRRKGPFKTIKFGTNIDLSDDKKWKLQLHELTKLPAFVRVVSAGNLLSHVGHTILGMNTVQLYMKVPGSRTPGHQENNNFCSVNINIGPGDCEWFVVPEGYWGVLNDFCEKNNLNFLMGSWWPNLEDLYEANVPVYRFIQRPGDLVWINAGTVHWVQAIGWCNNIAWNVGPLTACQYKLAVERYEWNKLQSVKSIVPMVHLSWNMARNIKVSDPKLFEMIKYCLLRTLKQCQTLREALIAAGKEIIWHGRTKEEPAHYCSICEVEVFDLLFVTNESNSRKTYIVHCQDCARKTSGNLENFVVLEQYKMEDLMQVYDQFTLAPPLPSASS
T3 sequence (O15054 1043-1682 isoform O15054-1 limits assumed): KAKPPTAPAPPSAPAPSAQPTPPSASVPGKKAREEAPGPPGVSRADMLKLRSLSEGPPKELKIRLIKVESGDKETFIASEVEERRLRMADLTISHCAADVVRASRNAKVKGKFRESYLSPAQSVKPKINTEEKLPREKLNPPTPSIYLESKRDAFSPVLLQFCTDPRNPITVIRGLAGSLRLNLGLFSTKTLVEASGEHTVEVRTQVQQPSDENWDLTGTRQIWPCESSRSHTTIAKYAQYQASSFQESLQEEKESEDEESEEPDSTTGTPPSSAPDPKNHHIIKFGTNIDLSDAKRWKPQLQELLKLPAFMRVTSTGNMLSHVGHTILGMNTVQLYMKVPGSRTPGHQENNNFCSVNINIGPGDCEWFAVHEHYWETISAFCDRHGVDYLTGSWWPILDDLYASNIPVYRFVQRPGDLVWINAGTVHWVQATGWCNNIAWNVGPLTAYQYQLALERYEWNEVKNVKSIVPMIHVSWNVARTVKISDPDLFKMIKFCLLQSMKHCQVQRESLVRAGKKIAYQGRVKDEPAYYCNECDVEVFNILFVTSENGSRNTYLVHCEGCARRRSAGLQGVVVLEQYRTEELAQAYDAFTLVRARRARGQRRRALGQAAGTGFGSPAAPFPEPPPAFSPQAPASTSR

CN(C)C(=O)CNCc1cc(/C=N\C2CC2)ccn1 [Compound 33]
IC50 [1]: < 250 nM
IC50 [2]: > 2500 nM
IC50 [3]: > 2500 nM
IC50 [4]: > 2500 nM
IC50 [5]: < 250 nM

CN(C)C(=O)CNCc1cc(/C=N/CCCc2ccccc2)ccn1 [Compound 34, N,N-dimethyl-2-[({4-[[(3-phenylpropyl)imino]-methyl]pyridin-2-yl}methyl)amino]-acetamide]
IC50 [1]: < 250 nM
IC50 [2]: > 2500 nM
IC50 [3]: > 2500 nM
IC50 [4]: > 2500 nM
IC50 [5]: < 250 nM

CC1CC1/N=C/c1ccnc(CNCC(=O)N(C)C)c1 (stereo not drawn) [Compound 35, N,N-dimethyl-2-[({4-[N-(2-methylcyclopropyl)-carboximidoyl]pyridin-2-yl}methyl)amino]-acetamide]
IC50 [1]: < 250 nM
IC50 [2]: > 2500 nM
IC50 [3]: < 250 nM
IC50 [4]: > 2500 nM
IC50 [5]: 250 to 2500 nM

CN(C)C(=O)CNCc1cc(/C=N/CCC2CCCCC2)ccn1 [Compound 36, 2-[({4-[[(2-cyclohexylethyl)imino]-methyl]pyridin-2-yl}methyl)amino]-N,N-dimethylacetamide]
IC50 [1]: < 250 nM
IC50 [2]: > 2500 nM
IC50 [3]: < 250 nM
IC50 [4]: > 2500 nM
IC50 [5]: < 250 nM

CN(C)CCCNCc1cc(/C=N/CCN(C)C)ccn1 [Compound 38, ({4-[{[2-(dimethylamino)ethyl]-imino}methyl]pyridin-2-yl}methyl)[3-(dimethylamino)-propyl]amine]
IC50 [1]: < 250 nM
IC50 [2]: > 2500 nM
IC50 [3]: > 2500 nM
IC50 [4]: > 2500 nM
IC50 [5]: < 250 nM

CCSCCNCc1cc(/C=N/C2CC2)ccn1 [Compound 39, N-{[2-({[2-(ethylsulfanyl)-ethyl]amino}methyl)pyridin-4-yl]methylidene}-cyclopropanamine]
IC50 [1]: < 250 nM
IC50 [2]: > 2500 nM
IC50 [3]: < 250 nM
IC50 [4]: > 2500 nM
IC50 [5]: 250 to 2500 nM

CN1CCCC1CCNCc1cc(/C=N/C2CC2)ccn1 (stereo not drawn) [Compound 40, N-{[2-({[2-(l-methylpyrrolidin-2-yl)ethyl]amino}methyl)-pyridin-4-yl]methylidene}-cyclopropanamine]
IC50 [1]: < 250 nM
IC50 [2]: > 2500 nM
IC50 [3]: 250 to 2500 nM
IC50 [4]: > 2500 nM
IC50 [5]: < 250 nM

C(=N/C1CC1)/c1ccnc(CNCCCN2CCCC2)c1 [Compound 42, N-{[2-({[3-(pyrrolidin-1-yl)propyl]amino}-methyl)pyridin-4-yl]methylidene}-cyclopropanamine]
IC50 [1]: < 250 nM
IC50 [2]: > 2500 nM
IC50 [3]: 250 to 2500 nM
IC50 [4]: > 2500 nM
IC50 [5]: < 250 nM

CN(C)C/C=C/CNCc1cc(/C=N/C2CC2)ccn1 [Compound 43, N-{[2-({[(2E)-4-(dimethylamino)but-2-en-1-yl]amino}-methyl)pyridin-4-yl]methylidene}-cyclopropanamine]
IC50 [1]: < 250 nM
IC50 [2]: > 2500 nM
IC50 [3]: < 250 nM
IC50 [4]: > 2500 nM
IC50 [5]: < 250 nM

C(=N\C1CC1)/c1ccnc(CNCCCCN2CCC2)c1 [Compound 44, N-{[2-({[4-(azetidin-1-yl)butyl]amino}methyl)-pyridin-4-yl]methylidene}-cyclopropanamine]
IC50 [1]: < 250 nM
IC50 [2]: > 2500 nM
IC50 [3]: > 2500 nM
IC50 [4]: 250 to 2500 nM
IC50 [5]: < 250 nM

CN(C)CCCCNCc1cc(/C=N\C2CC2)ccn1 [Compound 45, N-{[2-({[4-(dimethylamino)butyl]-amino}methyl)-pyridin-4-yl]methylidene}-cyclopropanamine]
IC50 [1]: < 250 nM
IC50 [2]: > 2500 nM
IC50 [3]: 250 to 2500 nM
IC50 [4]: > 2500 nM
IC50 [5]: 250 to 2500 nM

CN(C)CC1CCC(CNCc2cc(/C=N/C3CC3)ccn2)CC1 (stereo not drawn) [Compound 46, N-[(2-{[({4-[(dimethylamino)-methyl]cyclohexyl}-methyl)amino]-methyl}pyridin-4-yl)methylidene]-cyclopropanamine]
IC50 [1]: < 250 nM
IC50 [2]: > 2500 nM
IC50 [3]: 250 to 2500 nM
IC50 [4]: > 2500 nM
IC50 [5]: 250 to 2500 nM

CN(C)CCCCCNCc1cc(/C=N/C2CC2)ccn1 [Compound 47, N-{[2-({[5-(dimethylamino)-pentyl]amino}-methyl)pyridin-4-yl]methylidene}-cyclopropanamine]
IC50 [1]: < 250 nM
IC50 [2]: > 2500 nM
IC50 [3]: 250 to 2500 nM
IC50 [4]: > 2500 nM
IC50 [5]: < 250 nM

CCN(CC)CCCCNC(=O)CNCc1cc(/C=N/C2CC2)ccn1 [Compound 48, 2-[({4-[N-cyclopropyl-carboximidoyl]pyridin-2-yl}methyl)amino]-N-[4-(diethylamino)-butyl]acetamide]
IC50 [1]: < 250 nM
IC50 [2]: > 2500 nM
IC50 [3]: < 250 nM
IC50 [4]: > 2500 nM
IC50 [5]: < 250 nM

O=C(CNCc1cc(/C=N/C2CC2)ccn1)N1CCC[C@@H]1CN1CCCC1 [Compound 49, 2-[({4-[N-cyclopropyl-carboximidoyl]pyridin-2-yl}methyl)amino]-1-[(2R)-2-(pyrrolidin-1-ylmethyl)pyrrolidin-1-yl]ethan-1-one]
IC50 [1]: < 250 nM
IC50 [2]: > 2500 nM
IC50 [3]: < 250 nM
IC50 [4]: > 2500 nM
IC50 [5]: < 250 nM

CCN(CCC#N)C(=O)CNCc1cc(/C=N/C2CC2)ccn1 [Compound 50, N-(2-cyanoethyl)-2-[({4-[N-cyclopropyl-carboximidoyl]-pyridin-2-yl}methyl)amino]-N-ethylacetamide]
IC50 [1]: < 250 nM
IC50 [2]: > 2500 nM
IC50 [3]: < 250 nM
IC50 [4]: > 2500 nM
IC50 [5]: < 250 nM

CCN1CCCC1CNC(=O)CNCc1cc(/C=N/C2CC2)ccn1 (stereo not drawn) [Compound 51, 2-[({4-[N-cyclopropyl-carboximidoyl]-pyridin-2-yl}methyl)-amino]-N-[(1-ethylpyrrolidin-2-yl)methyl]acetamide]
IC50 [1]: < 250 nM
IC50 [2]: > 2500 nM
IC50 [3]: < 250 nM
IC50 [4]: > 2500 nM
IC50 [5]: < 250 nM

CN(CCCn1cccn1)C(=O)CNCc1cc(/C=N/C2CC2)ccn1 [Compound 52, 2-[({4-[N-cyclopropyl-carboximidoyl]-pyridin-2-yl}methyl)amino]-N-methyl-N-[3-(1H-pyrazol-1-yl)propyl]acetamide]
IC50 [1]: < 250 nM
IC50 [2]: > 2500 nM
IC50 [3]: < 250 nM
IC50 [4]: > 2500 nM
IC50 [5]: < 250 nM

From US9650339B2, “Inhibitors of histone demethylases” (Gilead Sciences, Inc., priority 2013, dated 2017)
